Source: article PMC11018795, “The regulatory relationship between NAMPT and PD-L1 in cancer and identification of a dual-targeting inhibitor” (EMBO Molecular Medicine, 2024)
Where “and” joins values, the source holds several entries; their conditions need not be identical. Equal entries are not always repeated.

Tests used:
PD-1/PD-L1 interaction = biological target: T1, PD-1/PD-L1 interaction (Homo sapiens, UniProt Q9NZQ7); assay: In vitro PD-1/PD-L1-binding assay (Cisbio kit)
T1 construct: purchased Cisbio 64ICP01PEG
T1 sequence (Q9NZQ7 19-238 limits assumed): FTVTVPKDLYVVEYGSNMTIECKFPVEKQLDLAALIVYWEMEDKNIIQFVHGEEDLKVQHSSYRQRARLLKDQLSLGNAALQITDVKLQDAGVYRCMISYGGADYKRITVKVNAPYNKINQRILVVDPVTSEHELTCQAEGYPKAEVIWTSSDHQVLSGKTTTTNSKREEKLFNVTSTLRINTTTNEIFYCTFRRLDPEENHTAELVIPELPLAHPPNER
Protocol: The biochemical activity of the final compounds was evaluated using a PD-1/PD-L1 binding assay kit (Cisbio, cat. No. 64ICP01PEG). Experiments were performed according to the manufacturer’s instructions.

HepG2 cells = assay: MTT assay 48 h, HepG2; assay type: cell-based, human
Protocol: (§1) Cells (5 × 10^3/well) were seeded into a 96-well plate and cultured at 37 °C in a 5% CO2 incubator. […] At the final time point, 10 μl MTT solution (5 mg/ml, Sigma, Burlington, MA, USA) was added to each well and incubated for an additional 4 h at 37 °C in a 5% CO2 incubator. Then,100 μl of DMSO was added to each well and mixed thoroughly. Optical density was measured at 492 nm using a microplate reader (Molecular Devices, San Jose, CA, USA).

LLC cells [1] = assay: MTT assay 48 h, LLC; assay type: cell-based, mouse
Protocol: as §1

CT-26 cells = assay: MTT assay 48 h, CT-26; assay type: cell-based, mouse
Protocol: as §1

LLC cells [2] = assay: Clonogenic assay, LLC; assay type: cell-based, mouse; conditions: 9 days
Protocol: Cells (3 × 10^2/well) were plated in a six-well plate and the culture medium was replaced every 2 days. After culturing for 7–10 d, the cells were fixed with 4% paraformaldehyde for 15 min, stained with 0.1% crystal violet for 30 min, and imaged and counted.

HCT-116 cells = assay: Cell cycle analysis, HCT-116; assay type: cell-based, human
Excerpt: Supplement 44321_2024_51_MOESM5_ESM.zip/Fig4-D.xlsx, sheet "Sheet1" | column: G0/G1; S; G2/M

A2780 cells = assay: Apoptosis assay (Annexin V/PI), A2780; assay type: cell-based, human
Protocol: The cells are treated with the compounds. After 48–72 h, the cells were harvested and washed twice with cold PBS. The cells were then stained with Annexin V/propidium iodide (PI) (BD Biosciences) and examined using a NovoCyte Flow Cytometer (ACEA Biosciences). Data were analyzed using NovoExpress software (ACEA Biosciences).

[3] = system: LLC OE NAMPT/PD-L1 tumors; assay: LLC OE NAMPT/PD-L1 tumor-bearing C57BL/6 mice; assay type: in vivo, mouse; conditions: 20 mg/kg i.p.
[4] = system: LLC OE NAMPT cells co-cultured with T cells; assay: T cell-mediated tumor cell killing assay, LLC OE NAMPT; assay type: cell-based; conditions: Mus musculus, 100 nM, read-out: inhibition rate (T cell-mediated killing)
Protocol: (§2) To acquire activated T cells, human peripheral blood mononuclear cells (PBMC; LTS1077, Yanjin Biological) were cultured in CTSTM AIIM VTM SFM (A3021002; Gibco) with ImmunoCult Human CD3/CD28/CD2 T-cell activator (25 µL/mL; […] Technologies, Cat#10970) for 48 h according to the manufacturer’s protocol. The experiments were performed using mouse anti-CD3 antibody (1 µg/mL; Thermo Scientific, 16-0032-82) and anti-CD28 antibody(5 µg/mL; Thermo Scientific, 16-0281-82). Cancer cells were allowed to adhere to the plates overnight and then incubated for 48 h with activated T cells in the presence or absence of DX ([…]). Different proportions of cancer cells and activated T cells were utilized according to the purpose of each experiment. The T-cell proliferation assay was 1:3; the T-cell killing assay was 1:10; T cells and cell debris were removed by PBS washing, and the living cancer cells were then quantified by a spectrometer at OD (570 nm) followed by crystal violet staining. page 12: Fig 3: […] expression patterns. […] Data was obtained from the TCGA database. (B) T cell-mediated tumor cell killing assay. T cells were co-cultured with LLC Vector, […] CQ-85, or BMS202. […] stained by crystal violet. The relative added value of activated T cells is shown below. Data are presented as mean ± SEM; *P < 0.05, **P < 0.01, ***P < 0.001, compared with control. n.s., not significant. […]

[5] = system: LLC Vector cells co-cultured with T cells; assay: T cell-mediated tumor cell killing assay, LLC Vector; assay type: cell-based; conditions: Mus musculus, 100 nM, read-out: inhibition rate (T cell-mediated killing)
Protocol: as §2

[6] = In vitro metabolic stability in human liver microsome; assay type: in vitro ADME
Protocol: 2) Pharmacokinetics: Human liver microsomal stability assay is widely adopted in the preliminary evaluation for pharmacokinetic properties, reflecting the potential metabolic stability of indicated compounds in the human body. Thus, considering the […]
activity of LZFPN-90, it was further evaluated for potential metabolism in human liver microsome. The intrinsic clearance for LZFPN-90 in human liver microsome is 0.035 mL/min/mg. According to the classical criteria (Low clearance: CLint < 0.01 mL/min/mg; medium clearance: 0.01 ≤ CLint ≤ 0.1 mL/min/mg; high clearance: CLint > […]
indicating its potential for further development. […]
Table 1. In Vitro Metabolic Stability of LZFPN-90 in Human Liver Microsome T1/2 CLint, in vitro Remaining
(min)a (mL/min/mg)b (T = 60 min) […]
b CLint: intrinsic clearance, CLint(mic)=0.693/T1/2/mg microsomal protein/mL
(1 picture or pasted object on this page, not shown here)

[7] = system: lung cancer organoids derived from lung cancer patients; assay: Patient-derived lung cancer organoid viability; assay type: cell-based, human; conditions: 100 nM; 9 days
Protocol: Human lung cancer samples were obtained from Shengjing Hospital of China Medical University (IRB No. 2023PS1105K). The establishment of lung cancer patient-derived organoids was performed as described ([…] et al, [2019]). Organoids were seeded into 96-well plates and treated with the corresponding compounds for 9 days, and cell viability was determined by CellTiter Glo 3D cell viability assay (Promega, G9683).

NAMPT = NAMPT (Homo sapiens, UniProt P43490); assay: In vitro NAMPT activity assay (Abcam kit); assay type: biochemical; set-up: purchased Abcam ab221819
Chain of NAMPT (P43490 whole entry, species assumed): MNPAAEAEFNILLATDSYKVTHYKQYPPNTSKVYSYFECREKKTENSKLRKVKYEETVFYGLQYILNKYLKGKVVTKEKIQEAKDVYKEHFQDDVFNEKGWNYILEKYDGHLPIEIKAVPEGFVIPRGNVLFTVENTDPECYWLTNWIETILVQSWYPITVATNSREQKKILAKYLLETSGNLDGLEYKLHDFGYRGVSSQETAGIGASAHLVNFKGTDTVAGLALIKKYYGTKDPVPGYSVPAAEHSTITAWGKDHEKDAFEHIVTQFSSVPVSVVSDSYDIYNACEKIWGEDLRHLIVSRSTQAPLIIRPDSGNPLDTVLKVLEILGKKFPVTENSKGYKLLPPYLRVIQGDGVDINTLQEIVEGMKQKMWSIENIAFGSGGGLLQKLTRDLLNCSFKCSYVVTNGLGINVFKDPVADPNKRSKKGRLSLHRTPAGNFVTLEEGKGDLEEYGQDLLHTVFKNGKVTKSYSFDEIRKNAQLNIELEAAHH

Structure (SMILES): CCN(CC)CCCOc1cccc(-c2cccc3c2CCN3C(=O)c2ncc(CNC(=NC#N)Nc3ccncc3)s2)c1 [LZFPN-90]
- IC50 (PD-1/PD-L1 interaction): 13 nM
- Relative inhibition (敏感性) (HepG2 cells): 0.58
- Relative inhibition (敏感性) (LLC cells [1]; LLC): 0.15
- effect on relative viability of LLC cells (LLC cells [1]; MTT, 64 nM): basically had no effect
- Relative inhibition (敏感性) (CT-26 cells): 0.17
- Colony formation relative to Ctrl (LLC cells [2]; LZ90-H (80 nM)): 0.24
- Colony formation relative to Ctrl (LLC cells [2]; LZ90-L (20 nM), Ctrl = 1): 0.68
- Colony formation relative to Ctrl (LLC cells [2]; LZ90-M (40 nM)): 0.53
- Cell cycle G0/G1 (HCT-116 cells; LZ90 20): 30.68 and 20.48 and 22.54
- Cell cycle G2/M (HCT-116 cells; LZ90 20): 39.61 and 24.71 and 42.91
- Cell cycle S (HCT-116 cells; LZ90 20): 43.42 and 36.35 and 37.23
- Cell cycle G0/G1 (HCT-116 cells; LZ90 40): 26.06 and 19.94 and 21.52
- Cell cycle G2/M (HCT-116 cells; LZ90 40): 39.6 and 30.95 and 41.08
- Cell cycle S (HCT-116 cells; LZ90 40): 42.06 and 38.61 and 38.5
- Cell cycle G0/G1 (HCT-116 cells; LZ90 60): 42.69 and 40.27 and 41.43
- Cell cycle G2/M (HCT-116 cells; LZ90 60): 18.16 and 13.12 and 19.4
- Cell cycle S (HCT-116 cells; LZ90 60): 43.44 and 39.68 and 39.66
- Apoptotic cells (sum of both Annexin-positive quadrants) (A2780 cells; LZ90 15 nM): 5.88 and 5.86 and 5.93
- Apoptotic cells (sum of both Annexin-positive quadrants) (A2780 cells; LZ90 60 nM): 12.2 and 12.06 and 12.87
- Apoptotic cells (sum of both Annexin-positive quadrants) (A2780 cells; LZ90 240 nM): 48.53 and 48.13 and 46.72
- TIR / tumor growth inhibition (TGI) rate at endpoint ([3]; 14 days, Fig 7B): 76.01%
- TIR (relative tumor weight) ([3]; LLC OE NAMPT/PD-L1, Fig 7G): 76.0%
- effect on the organs of mice ([3]; LLC OE NAMPT/PD-L1 model): minor effect on the organs of mice
- inhibition at 0.1 µM [4]: ~60%
- inhibition at 0.1 µM [5]: ~40%
- stability in human liver microsome ([6]; criteria: low CLint < 0.01, medium 0.01-0.1, high > 0.1 mL/min/mg): moderate stability in human liver microsome
- Remaining (T = 60 min) ([6]; human liver microsome): 36.8%
- half-life ([6]; liver microsomes, human liver microsome): 39.6 min
- microsomal CLint ([6]; liver microsomes, human liver microsome, read-out: CLint, in vitro (intrinsic clearance)): 35 µL/min/mg
- survival of lung cancer organoids [7]: the survival of the organoids was decreased significantly
- IC50 (NAMPT): 28 nM
- mode of NAMPT inhibition (NAMPT; concluded from NMN reversal of NAD+ reduction): NAMPT competitive inhibitor
